{
  "source": "patent US20240122923A1",
  "about": "“METHODS OF TREATING HIDRADENITIS SUPPURATIVA” (AbbVie Inc., priority 2022, published 2024)",
  "test_system": "adult human subjects with moderate to severe Hidradenitis Suppurativa (HS)",
  "test": "Phase 2 randomized, double-blind, placebo-controlled study of upadacitinib, efficacy incl. post-hoc analysis through week 40",
  "format": "in vivo",
  "details": "for Pain NRS30 at Week 12, UPA - PBO Diff: UPA 30 mg vs historical PBO rate 22.5%, p=0.028; for HiSCR at Week 12, UPA - PBO Diff: UPA 30 mg vs historical PBO rate 25%, 1-sided p=0.018; for HiSCR at Week 12, % (N), stratum TNF-IR / HiSCR at Week 12, % (N), stratum Hurley Stage (III) / HiSCR at Week 12, % (N), stratum Hurley Stage (<III) / HiSCR at Week 12, % (N), stratum TNF-Naïve / HiSCR at Week 12, % (N), Overall: UPA 30 mg; for HiSCR at Week 12, % (N), stratum TNF-IR: N=12; for HiSCR at Week 12, % (N), stratum Hurley Stage (III): N=23; for HiSCR at Week 12, % (N), stratum Hurley Stage (<III): N=24; for HiSCR at Week 12, % (N), stratum TNF-Naïve: N=35; for HiSCR at Week 12, % (N), Overall: N=47",
  "source_text": "This study was a Phase 2, multicenter, randomized, double-blind, parallel-group, placebo-controlled study to evaluate the efficacy and safety of upadacitinib in adult human subjects with moderate to severe Hidradenitis Suppurativa (HS).\nThe duration of the study was 57 weeks, including an approximately 35-day screening period followed by a 48-week double-blinded treatment period and a 30-day follow-up visit after the last dose of study drug. Subjects were randomized in a 2:1 ratio to 1 of the 2 arms as shown below: • Upadacitinib 30 mg once daily (QD) (N=40): Daily oral doses of upadacitinib 30 mg from the Baseline visit through Period 1 and Period 2. • Placebo (N=20): Placebo for upadacitinib from the Baseline visit up to the Week 12 visit (Period 1). At Week 12, subjects were switched to blinded upadacitinib 15 mg QD through Period 2.\nThe primary objective of this study was to assess the efficacy and safety of upadacitinib 30 mg QD in adult subjects with moderate to severe HS. The primary efficacy objective was assessed based on the achievement of HiSCR after 12 weeks treatment.\nThe primary endpoint was Hidradenitis Suppurativa Clinical Response (HiSCR) at Week 12, where HiSCR is defined as at least 50% reduction in the total abscess and inflammatory nodule (AN) count with no increase in abscess count and no increase in draining fistula count relative to Baseline.\nThe secondary endpoint was Pain Numerical Rating Scale (NRS30) at Week 12: the achievement of at least 30% reduction and at least 1 unit reduction from Baseline in NRS30 in Patient's Global Assessment of Skin Pain (PGA Skin Pain) at Week 12, among subjects with Baseline NRS≥3.\nThe following additional efficacy endpoints were evaluated: • 1. Experience of flare, defined as an increase in AN count of at least 25% with a minimum increase of 2 relative to Baseline • 2. Change from Baseline in Dermatology Life Quality Index (DLQI) • 3. Change from baseline in Hidradenitis Suppurativa Symptom Assessment (HSSA) • 4. Change from baseline in HS-related swelling, assessed based on the HSSA • 5. Change from baseline in HS-related odor, assessed based on the HSSA • 6. Change from baseline in HS-related worst drainage, assessed based on the HSSA\nFor the primary and secondary endpoints, comparisons of upadacitinib vs. placebo were made with 3 different analysis strategies, as summarized in Table 1 below:\nFor the additional endpoints, comparisons were made for upadacitinib vs. historical reference value of placebo, and upadacitinib vs. in-trial placebo subjects.\nFor categorical variables, the primary approach to handle missing data was Non-Responder Imputation [NRI] incorporating Multiple Imputation [MI]. For continuous variables, missing data was handled by Mixed-effect Model Repeat Measurement (MMRM). Missing data for long-term efficacy in Period 2 were handled based on the observed case (OC).\nA post-hoc efficacy assessment through week 40 was performed in the study of Example 1. The analysis included the proportion of patients achieving ≥75% and ≥90% reduction from baseline in AN count with no increase in abscess or draining fistula count (HiSCR 75 and HiSCR 90, respectively) and the proportion of patients achieving ≥55% reduction in International HS Severity Score System endpoint (IHS4-55), which dynamically assesses inflammatory nodules, abscesses, and draining tunnels.",
  "key": {"[1]": {"details": "UPA 30 mg vs in-trial PBO, p=0.086"}, "[2]": {"details": "MI, analysis vs synthetic + in-trial PBO"}},
  "data": [
    {"smiles": "CC[C@@H]1CN(C(=O)NCC(F)(F)F)C[C@@H]1c1cnc2cnc3[nH]ccc3n12", "note": "[upadacitinib]", "values": [
      {"measurement": "Pain NRS30 at Week 12, UPA - PBO Diff", "result": 13.9, "unit": "%"},
      {"measurement": "Pain NRS30 at Week 12, UPA - PBO Diff", "setting": "listed as UPA", "result": "Diff = 13.9%"},
      {"measurement": "HiSCR at Week 12, UPA - PBO Diff", "setting": "NRI-C", "result": 13.3, "unit": "%"},
      {"measurement": "HiSCR at Week 12, UPA - PBO Diff", "setting": "NRI-C, listed as UPA", "result": "Diff = 13.3%"},
      {"measurement": "Flare during Period 1, UPA - PBO Diff", "setting": "UPA 30 mg vs historical PBO rate 34%, p=0.001", "result": "Diff = −21.2"},
      {"measurement": "Change in HSSA odor at Week 12, UPA - PBO Diff", "setting": "UPA 30 mg vs historical reference value −0.72, p=0.072", "result": "Diff = −0.479"},
      {"measurement": "Change in HSSA total symptom at Week 12, UPA - PBO Diff", "setting": "UPA 30 mg vs historical reference value −0.72, p=0.188", "result": "Diff = −0.249"},
      {"measurement": "Change in HSSA swelling at Week 12, UPA - PBO Diff", "setting": "UPA 30 mg vs historical reference value −0.8, p=0.364", "result": "Diff = −0.131"},
      {"measurement": "Change in HSSA worst drainage at Week 12, UPA - PBO Diff", "setting": "UPA 30 mg vs historical reference value −0.89, p=0.219", "result": "Diff = −0.241"},
      {"measurement": "Change in DLQI at Week 12, UPA - PBO Diff", "setting": "UPA 30 mg vs historical reference value −2.5, p=0.548", "result": "Diff = 0.1"},
      {"measurement": "Pain NRS30 at Week 12, UPA - PBO Diff (adjusted difference)", "setting": "UPA 30 mg vs in-trial PBO (N=12), p=0.421", "result": 2.2, "unit": "%"},
      {"measurement": "Pain NRS30 at Week 12, UPA - PBO Diff (adjusted difference)", "setting": "UPA 30 mg vs in-trial PBO (N=12), p=0.421, listed as UPA", "result": "Diff = 2.2%"},
      {"measurement": "HiSCR at Week 12, UPA - PBO Diff (adjusted difference)", "setting": "UPA 30 mg vs in-trial PBO (N=21), NRI-C, p=0.087", "result": 14.7, "unit": "%"},
      {"measurement": "HiSCR at Week 12, UPA - PBO Diff (adjusted difference)", "setting": "UPA 30 mg vs in-trial PBO (N=21), NRI-C, p=0.087, listed as UPA", "result": "Diff = 14.7%"},
      {"measurement": "Change in HSSA odor at Week 12, UPA - PBO Diff", "setting": "UPA 30 mg vs in-trial PBO, p=0.024", "result": "Diff = −1.246"},
      {"measurement": "Change in HSSA total symptom at Week 12, UPA - PBO Diff", "setting": "UPA 30 mg vs in-trial PBO, p=0.046", "result": "Diff = −0.762"},
      {"measurement": "Change in HSSA swelling at Week 12, UPA - PBO Diff", "setting": "[1]", "result": "Diff = −0.795"},
      {"measurement": "Change in HSSA worst drainage at Week 12, UPA - PBO Diff", "setting": "[1]", "result": "Diff = −0.695"},
      {"measurement": "Change in DLQI at Week 12, UPA - PBO Diff", "setting": "UPA 30 mg vs in-trial PBO, p=0.222", "result": "Diff = −1.4"},
      {"measurement": "Flare during Period 1, UPA - PBO Diff", "setting": "UPA 30 mg vs in-trial PBO, p=0.231", "result": "Diff = −6.5"},
      {"measurement": "Pain NRS30 at Week 12, UPA - PBO Diff (adjusted difference)", "setting": "UPA 30 mg vs synthetic plus in-trial PBO (N=80), p=0.323", "result": "4.5% (−14.6, 23.5)"},
      {"measurement": "Pain NRS30 at Week 12, UPA - PBO Diff (adjusted difference)", "setting": "UPA 30 mg vs synthetic plus in-trial PBO (N=80), p=0.323, listed as UPA", "result": "Diff = 4.5%"},
      {"measurement": "HiSCR at Week 12, UPA - PBO Diff (adjusted difference)", "setting": "UPA 30 mg vs synthetic plus in-trial PBO (N=89), NRI-C, p=0.142", "result": "9.2% (−7.6, 25.9)"},
      {"measurement": "HiSCR at Week 12, UPA - PBO Diff (adjusted difference)", "setting": "UPA 30 mg vs synthetic plus in-trial PBO (N=89), NRI-C, p=0.142, listed as UPA", "result": "Diff = 9.2%"},
      {"measurement": "HiSCR at Week 12, % (N), stratum TNF-IR", "setting": "MI, analysis vs in-trial PBO", "result": "41.7% (N = 12)"},
      {"measurement": "HiSCR at Week 12, % (N), stratum Hurley Stage (III)", "setting": "MI, analysis vs in-trial PBO", "result": "39.7% (N = 23)"},
      {"measurement": "HiSCR at Week 12, % (N), stratum Hurley Stage (<III)", "setting": "MI, analysis vs in-trial PBO", "result": "38.1% (N = 24)"},
      {"measurement": "HiSCR at Week 12, % (N), stratum TNF-Naïve", "setting": "MI, analysis vs in-trial PBO", "result": "37.9% (N = 35)"},
      {"measurement": "HiSCR at Week 12, % (N), Overall", "setting": "MI, analysis vs in-trial PBO", "result": "38.9% (N = 47)"},
      {"measurement": "HiSCR at Week 12, % (N), stratum TNF-IR", "setting": "[2]", "result": "41.7% (N = 12)"},
      {"measurement": "HiSCR at Week 12, % (N), stratum Hurley Stage (III)", "setting": "[2]", "result": "40.3% (N = 23)"},
      {"measurement": "HiSCR at Week 12, % (N), stratum Hurley Stage (<III)", "setting": "[2]", "result": "39.0% (N = 24)"},
      {"measurement": "HiSCR at Week 12, % (N), stratum TNF-Naïve", "setting": "[2]", "result": "39.0% (N = 35)"},
      {"measurement": "HiSCR at Week 12, % (N), Overall", "setting": "[2]", "result": "39.6% (N = 47)"},
      {"measurement": "HiSCR at Week 12, % (N), stratum TNF-IR", "setting": "NRI-C", "result": 41.7, "unit": "%"},
      {"measurement": "HiSCR at Week 12, % (N), stratum TNF-IR", "setting": "NRI-C, listed as UPA", "result": "41.7% (N = 12)"},
      {"measurement": "HiSCR at Week 12, % (N), stratum Hurley Stage (III)", "setting": "NRI-C", "result": "39.1% (N = 23)"},
      {"measurement": "HiSCR at Week 12, % (N), stratum Hurley Stage (<III)", "setting": "NRI-C", "result": "37.5% (N = 24)"},
      {"measurement": "HiSCR at Week 12, % (N), stratum TNF-Naïve", "setting": "NRI-C", "result": 37.1, "unit": "%"}
    ]}
  ]
}
